Source: paper PMC7988358, “Characterization of GMPP from Dendrobium huoshanense yielding GDP-D-mannose” (Open Life Sciences, 2021)

Molecular target: T1, DhGMPP (Dendrobium huoshanense, UniProt A0A348HAW3)
T1 construct: gene GMPP; E. coli BL21-AI crude soluble extract, not purified
T1 sequence (A0A348HAW3 1-415): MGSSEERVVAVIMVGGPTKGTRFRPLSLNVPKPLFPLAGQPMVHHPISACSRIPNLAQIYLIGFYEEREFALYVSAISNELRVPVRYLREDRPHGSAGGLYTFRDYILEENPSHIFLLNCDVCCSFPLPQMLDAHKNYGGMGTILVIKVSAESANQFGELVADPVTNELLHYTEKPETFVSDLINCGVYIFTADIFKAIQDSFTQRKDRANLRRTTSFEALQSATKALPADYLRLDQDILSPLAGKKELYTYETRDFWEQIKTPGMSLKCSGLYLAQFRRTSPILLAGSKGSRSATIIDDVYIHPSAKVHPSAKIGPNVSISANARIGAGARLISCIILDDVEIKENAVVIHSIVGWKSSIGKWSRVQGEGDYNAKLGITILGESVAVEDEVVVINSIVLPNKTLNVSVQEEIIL
Assay: HPLC ([…] nm) detection of GDP-mannose formed
Assay type: biochemical
Conditions: 2.5 mM GTP, 5 mM MgCl2, 50 mM Tris-HCl pH 7.4, 37 °C, 10 min, crude E. coli extract, untransformed-host extract and boiled protein as controls

Compound | HPLC (254 nm) detection of GDP-mannose formed (5 mM α-D-mannose-phosphate) | HPLC (254 nm) detection of GDP-mannose formed (5 mM substrate)
Nc1nc2c(ncn2[C@@H]2O[C@H](COP(=O)(O)OP(=O)(O)OP(=O)(O)O)[C@@H](O)[C@H]2O)c(=O)[nH]1 [GTP] | By utilizing GTP and α-D-mannose-phosphate as substrates, DhGMPP catalyzes the reaction to yield GDP-mannose | –
O=P(O)(O)O[C@H]1O[C@H](CO)[C@@H](O)[C@H](O)[C@@H]1O [α-D-mannose-phosphate] | – | By utilizing GTP and α-D-mannose-phosphate as substrates, DhGMPP catalyzes the reaction to yield GDP-mannose
